Where a name gives a salt, the structure may show the parent alone.
Assays:
[1] = tested on: SMN protein; assay: SMN protein assay (HTRF) in cultured SMA patient fibroblast cells; assay type: cell-based; conditions: SMA Type 1 human fibroblasts GM03813, 48 hours; for EC1.5x SMN protein (EC1.5x concentration for SMN protein expression): 7-point concentration curve, concentration giving 1.5 times SMN protein vs vehicle; for max. fold increase (maximum fold increase of SMN protein): 7-point concentration data, fold vs vehicle control
Method: The SMN HTRF (homogeneous time resolved fluorescence) assay is used to quantify the level of SMN protein in SMA patient fibroblast cells treated with test compounds.
Cells are thawed and cultured in DMEM-10% FBS for 72 hours. Cells are trypsinized, counted and re-suspended to a concentration of 25,000 cells/mL in DMEM-10% FBS. The cell suspensions are plated at 5,000 cells per well in a 96 well microtiter plate and incubated for 3 to 5 hours. […] 1 μL of test compound solution is transferred to cell-containing wells and cells are incubated for 48 hours in a cell culture incubator (37° C., 5% CO2, 100% relative humidity). Triplicate samples are set up for each test compound concentration. After 48 hours, the supernatant is removed from the wells and 25 μL of the RIPA lysis buffer, containing protease inhibitors, is added to the wells and incubated with shaking at room temperature for 1 hour. 25 μL of the diluent is added and then 35 μL of the resulting lysate is transferred to a 384-well plate, where each well contains 5 μL of the antibody solution (1:100 dilution of anti-SMN d2 and anti-SMN kryptate in SMN reconstitution buffer). The plate is centrifuged for 1 minute to bring the solution to the bottom of the wells, then incubated overnight at room temperature. Fluorescence for each well of the plate at 665 nm and 620 nm is measured on an EnVision multilabel plate reader (Perkin-Elmer).
The normalized fluorescence signal is calculated for each sample, Blank and vehicle control well by dividing the signal at 665 nm by the signal at 620 nm. Normalizing the signal accounts for possible fluorescence quenching due to the matrix effect of the lysate. The ΔF value (a measurement of SMN protein abundance as a percent value) for each sample well is calculated by subtracting the normalized average fluorescence for the Blank control wells from the normalized fluorescence for each sample well, then dividing this difference by the normalized average fluorescence for the Blank control wells and multiplying the resulting value by 100. The ΔF value for each sample well represents the SMN protein abundance from test compound-treated samples. The ΔF value for each sample well is divided by the ΔF value for the vehicle control wells to calculate the fold increase in SMN protein abundance relative to the vehicle control. Table 3 provides EC1.5x concentrations for SMN protein expression that was obtained from the 7-point concentration data generated according to the above procedure for particular compounds of the present invention.
Table 4 provides the maximum fold increase of SMN protein that was obtained from the 7-point concentration data generated according to the above procedure for particular compounds of the present invention

[2] = tested on: full length SMN2 minigene mRNA (FL SMN2mini) in HEK293H cells stably transfected with the SMN2-A minigene construct; assay: SMN2 minigene mRNA splicing RT-qPCR assay in cultured cells; assay type: cell-based; conditions: Homo sapiens, HEK293-H, 24 hours, 7-point concentration curve, concentration giving 1.5-fold FL SMN2mini mRNA vs vehicle, read-out: EC1.5x minigene (EC1.5x concentration for production of full length SMN2 minigene mRNA)
Method: The reverse transcription-quantitative PCR-based (RT-qPCR) assay is used to quantify the level of the full length SMN2 minigene (referred to herein by the term “FL SMN2mini”) mRNA containing SMN2 exon 7 in a HEK293H cell line stably transfected with said minigene and treated with a test compound.
The SMN2-A minigene construct was prepared as described in International Patent Application WO2009/151546A1 page 145 paragraph [00400] to page 147 paragraph [00412](incl. FIG. 1 and FIG. 3 therein).
HEK293H cells stably transfected with the SMN2-A minigene construct (10,000 cells/well) are seeded in 200 μL of cell culture medium (DMEM plus 10% FBS, with 200 μg/mL hygromycin) in 96-well flat-bottom plates and the plate is immediately swirled to ensure proper dispersal of cells and the formation of an even monolayer of cells. Cells are allowed to attach for 6 hours. […] A solution of test compound (1 μL, 200× in DMSO) is added to each cell-containing well and the plate is incubated for 24 hours in a cell culture incubator (37° C., 5% CO2, 100% relative humidity). 2 replicates are prepared for each test compound concentration. The cells are then lysed in the Cells-To-Ct lysis buffer and the lysate is stored at −80° C.
Full length SMN2-A minigene and GAPDH mRNA are quantified using the primers and probes referenced in Table 1. Primer SMN Forward A (SEQ ID NO.1) hybridizes to a nucleotide sequence in exon 7 (nucleotide 22 to nucleotide 40), primer SMN Reverse A (SEQ ID NO.2) hybridizes to a nucleotide sequence in the coding sequence of Firefly luciferase, SMN Probe A (SEQ ID NO.3) hybridizes to a nucleotide sequence in exon 7 (nucleotide 50 to nucleotide 54) and exon 8 (nucleotide 1 to nucleotide 21). The combination of these three oligonucleotides detects only SMN1 or SMN2 minigenes (RT-qPCR) and will not detect endogenous SMN1 or SMN2 genes.
The SMN forward and reverse primers are used at final concentrations of 0.4 μM. The SMN probe is used at a final concentration of 0.15 μM. The GAPDH primers are used at final concentrations of 0.2 μM and the probe at 0.15 μM.
The SMN2-minigene GAPDH mix (15 μL total volume) is prepared by combining 7.5 μL of 2×RT-PCR buffer, 0.4 μL of 25×RT-PCR enzyme mix, 0.75 μL of 20×GAPDH primer-probe mix, 4.0075 μL of water, 2 μL of 10-fold diluted cell lysate, 0.06 μL of 100 μM SMN forward primer, 0.06 μL of 100 μM SMN reverse primer, and 0.225 μL of 100 μM SMN probe.
PCR is carried out at the following temperatures for the indicated time: Step 1: 48° C. (15 min); Step 2: 95° C. (10 min); Step 3: 95° C. (15 sec); Step 4: 60° C. (1 min); then repeat Steps 3 and 4 for a total of 40 cycles.
Each reaction mixture contains both SMN2-A minigene and GAPDH primers/probe sets (multiplex design), allowing simultaneous measurement of the levels of two transcripts.
The increase in the abundance of the FL SMN2mini mRNA relative to that in cells treated with vehicle control is determined from real-time PCR data using a modified ΔΔCt method (as described in Livak and Schmittgen, Methods, 2001, 25:402-8). The amplification efficiency E is calculated from the slope of the amplification curve for FL SMN2mini and GAPDH individually. The abundance of FL SMN2mini and GAPDH mRNA are then calculated as (1+E)^−Ct, where Ct is the threshold value for each amplicon. The abundance of FL SMN2mini mRNA is normalized to GAPDH mRNA abundance. The normalized FL SMN2mini mRNA abundance from test compound-treated samples is then divided by normalized FL SMN2mini mRNA abundance from vehicle-treated cells to determine the level of FL SMN2mini mRNA relative to vehicle control.
Table 2 provides EC1.5x concentrations for production of full length SMN2 minigene mRNA that was obtained from the 7-point concentration data generated according to the above procedure for particular compounds of the present invention.

Compound | EC1.5x SMN protein (EC1.5x concentration for SMN protein expression) [1] [µM] | max. fold increase (maximum fold increase of SMN protein) [1] | EC (1.5-fold) [2] [µM]
COc1nc(N2CCNC(C)C2)ccc1C(=O)Nc1cc(F)c2nc(C)cn2c1 (racemic) [Example 74, rac-N-(8-fluoro-2-methylimidazo[1,2-a]pyridin-6-yl)-2-methoxy-6-(3-methylpiperazin-1-yl)nicotinamide] | 0.1524 | 1.709 | 0.0161
Cc1nc2c(F)cc(NC(=O)c3ccc(N4CC(C)NC(C)C4)cc3)cc2o1 (stereo not drawn) [Example 30, 4-(3,5-dimethyl-piperazin-1-yl)-N-(4-fluoro-2-methyl-benzo[d]oxazol-6-yl)benzamide] | 0.7612 | 1.6734 | 0.41
Cc1cn2cc(NC(=O)c3ccc(N4CCNC(C)C4)nc3)nc2c(C)n1 (racemic) [Example 7, rac-N-(6,8-dimethyl-imidazo[1,2-a]-pyrazin-2-yl)-6-(3-methyl-piperazin-1-yl)nicotinamide] | 0.2834 | 1.7936 | 0.142
Cc1cn2cc(NC(=O)c3ccc(N4CCN[C@H](C)C4)cc3F)cc(F)c2n1 [Example 51, (R)-2-fIuoro-N-(8-fluoro-2-methyl-imidazo[1,2-a]-pyridin-6-yl)-4-(3-methylpiperazin-1-yl)benzamide hydrochloride] | 0.0561 | 1.7266 | 0.0084
Cc1cn2cc(NC(=O)c3ccc(N4CCNC(C)C4)c(F)c3F)cc(F)c2n1 (racemic) [Example 45, rac-2,3-difluoro-N-(8-fluoro-2-methylimidazo[1,2-a]pyridin-6-yl)-4-(3-methylpiperazin-1-yl)benzamide hydrochloride] | 0.5147 | 1.6445 | 0.0615
Cc1cn2cc(NC(=O)c3ccc(N4CC(C)NC(C)C4)nc3)cc(C(F)(F)F)c2n1 (stereo not drawn) [Example 22, 6-(3,5-dimethyl-piperazin-1-yl)-N-(2-methyl-8-(trifluoromethyl)-imidazo[1,2-a]-pyridin-6-yl)-nicotinamide] | 0.4468 | 1.7566 | 0.263
Cc1cn2cc(NC(=O)c3ccc(N4CCN(C)CC4)cc3F)nc2c(C)n1 [Example 4, N-(6,8-dimethyl-imidazo[1,2-a]-pyrazin-2-yl)-2-fluoro-4-(4-methylpiperazin-1-yl)benzamide] | 0.5614 | 1.769 | 0.232
Cc1cn2cc(NC(=O)c3ccc(N4CCNCC4)cc3F)cc(F)c2n1 [Example 40, 2-fluoro-N-(8-fluoro-2-methyl-imidazo[1,2-a]-pyridin-6-yl)-4-(piperazin-1-yl)benzamide dihydrochloride] | 0.0276 | 1.7607 | 0.0108
Cc1cn2cc(NC(=O)c3ccc(N4CCN[C@@H](C)C4)cc3F)cc(F)c2n1 [Example 50, (S)-2-fluoro-N-(8-fluoro-2-methyl-imidazo[1,2-a]-pyridin-6-yl)-4-(3-methylpiperazin-1-yl)benzamide hydrochloride] | 0.0344 | 1.6607 | 0.0068
Cc1cn2cc(NC(=O)c3ccc(C4CCN(C)CC4)nc3)ccc2n1 [Example 78, N-(2-methylimidazo[1,2-a]pyridin-6-yl)-6-(1-methylpiperidin-4-yl)nicotinamide] | 1.013 | 1.7897 | 0.622
Cc1cn2cc(NC(=O)c3ccc(N4CCNCC4)nc3)cc(C(F)(F)F)c2n1 [Example 19, N-(2-methyl-8-(trifluoromethyl)-imidazo[1,2-a]-pyridin-6-yl)-6-(piperazin-1-yl)-nicotinamide] | 1.3818 | 1.664 | 0.267
Cc1cn2cc(NC(=O)c3ccc(N4CCNC(C)C4)cc3F)cc(C)c2n1 (racemic) [Example 37, rac-N-(2,8-dimethyl-imidazo[1,2-a]-pyridin-6-yl)-2-fluoro-4-(3-methylpiperazin-1-yl)benamide dihydrochloride] | 0.1196 | 1.7758 | 0.028
Cc1cn2cc(NC(=O)c3cnc(N4CCNCC4)c(C)c3)cc(F)c2n1 [Example 67, N-(8-fluoro-2-methylimidazo[1,2-a]pyridin-6-yl)-5-methyl-6-(piperazin-1-yl)nicotinamide] | 0.866 | 1.6552 | 0.318
Cc1cn2cc(NC(=O)c3ccc(N4CCNCC4)nc3F)cc(F)c2n1 [Example 65, 2-fIuoro-N-(8-fluoro-2-methylimidazo[1,2-a]pyridin-6-yl)-6-(piperazin-1-yl)-nicotinamide] | 0.1135 | 1.7675 | 0.0762

Source: patent publication US10501482B2, “Compounds for treating spinal muscular atrophy” (Hoffmann-La Roche Inc., priority 2013, dated 2019)
